Measurements as given in the supplement of paper PMC11061612.

Experiments:
SN-38 = compound: CCc1c2c(nc3ccc(O)cc13)-c1cc3c(c(=O)n1C2)COC(=O)[C@]3(O)CC [SN-38]; settings: max 0.3 µM
How it was run: (§1)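 Cancer cell lines were seeded in 1536-well plates in 7.5 μl DMEM/F12 or RPMI with 10% FBS, held 24 hours at 37°C and 5% CO2, then dosed for 72 hours (final DMSO typically 0.2%). Viability was read by CellTiter-Glo 2.0 luminescence and scaled between blank-well and DMSO-well means. The single-agent IC50 comes from dose responses fitted to a two-parameter logistic curve with a non-linear mixed effects model.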

SRA737 = compound: N#Cc1cnc(Nc2cc(NC[C@H]3CNCCO3)c(C(F)(F)F)cn2)cn1 [SRA737]; settings: max 10 µM
How it was run: as §1

AZD2811 = compound: CCN(CCO)CCCOc1ccc2c(Nc3cc(CC(=O)Nc4cccc(F)c4)[nH]n3)ncnc2c1 [AZD2811]; settings: max 1 µM
How it was run: as §1

Olaparib = compound: O=C(c1cc(Cc2n[nH]c(=O)c3ccccc23)ccc1F)N1CCN(C(=O)C2CC2)CC1 [Olaparib]; settings: max 10 µM
How it was run: as §1

AZD5153 = compound: COc1nnc2ccc(N3CCC(c4ccc(OCCN5CCN(C)C(=O)[C@H]5C)cc4)CC3)nn12 [AZD5153]; settings: max 1 µM
How it was run: as §1

AZD8186 = compound: C[C@@H](Nc1cc(F)cc(F)c1)c1cc(C(=O)N(C)C)cc2c(=O)cc(N3CCOCC3)oc12 [AZD8186]; settings: max 10 µM
How it was run: as §1

AZD6738 = compound: C[C@@H]1COCCN1C2=NC(=NC(=C2)C3(CC3)[S@](=N)(=O)C)C4=C5C=CNC5=NC=C4 [AZD6738]; settings: max 10 µM
How it was run: as §1

MK-2206 = compound: NC1(c2ccc(-c3nc4ccn5c(=O)[nH]nc5c4cc3-c3ccccc3)cc2)CCC1 [MK-2206]; settings: max 10 µM
How it was run: as §1

AZD5991 = compound: Cc1c2c(nn1C)CSCc1cc(n(C)n1)CSc1cc(c3ccccc3c1)OCCCc1c(C(=O)O)n(C)c3c-2c(Cl)ccc13 [AZD5991]; settings: max 1 µM
How it was run: as §1

AZD4320 = compound: CN(CC[C@H](CSC1=CC=CC=C1)NC2=C(C=C(C=C2)S(=O)(=O)NC(=O)C3=CC=C(C=C3)N4CCC(CC4)[C@H](C5=CC=CC=C5C6=CC=C(C=C6)Cl)O)S(=O)(=O)C(F)(F)F)CCO [AZD4320]; settings: max 1 µM
How it was run: as §1

[1] = compound: O=C(Nc1ccc2[nH]nc(-c3ccncc3)c2c1)[C@@H]1CCN(CC(=O)N2CCN(c3ccc(-c4ncccn4)cc3)CC2)C1; settings: max 5 µM
How it was run: as §1

Palbociclib = compound: CC(=O)c1c(C)c2cnc(Nc3ccc(N4CCNCC4)cn3)nc2n(C2CCCC2)c1=O [Palbociclib]; settings: max 10 µM
How it was run: as §1

AZD1390 = compound: CC(C)n1c(=O)n(C)c2cnc3cc(F)c(-c4ccc(OCCCN5CCCCC5)nc4)cc3c21 [AZD1390]; settings: max 0.3 µM
How it was run: as §1

Crizotinib = compound: C[C@@H](Oc1cc(-c2cnn(C3CCNCC3)c2)cnc1N)c1c(Cl)ccc(F)c1Cl [Crizotinib]; settings: max 10 µM
How it was run: as §1

Doxorubicin = compound: COc1cccc2c1C(=O)c1c(O)c3c(c(O)c1C2=O)C[C@@](O)(C(=O)CO)C[C@@H]3O[C@H]1C[C@H](N)[C@H](O)[C@H](C)O1 [Doxorubicin]; settings: max 1 µM
How it was run: as §1

Carboplatin = compound: C1CC(C1)(C(=O)[O-])C(=O)[O-].N.N.[Pt+2] [Carboplatin]; settings: max 10 µM
How it was run: as §1

AZD1775 = compound: C=CCn1c(=O)c2cnc(Nc3ccc(N4CCN(C)CC4)cc3)nc2n1-c1cccc(C(C)(C)O)n1 [AZD1775]; settings: max 3 µM
How it was run: as §1

Trametinib = compound: CC(=O)Nc1cccc(-n2c(=O)n(C3CC3)c(=O)c3c(Nc4ccc(I)cc4F)n(C)c(=O)c(C)c32)c1 [Trametinib]; settings: max 1 µM
How it was run: as §1

Lapatinib = compound: CS(=O)(=O)CCNCc1ccc(-c2ccc3ncnc(Nc4ccc(OCc5cccc(F)c5)c(Cl)c4)c3c2)o1 [Lapatinib]; settings: max 10 µM
How it was run: as §1

Etoposide = compound: COc1cc([C@@H]2c3cc4c(cc3[C@@H](O[C@@H]3O[C@@H]5CO[C@@H](C)O[C@H]5[C@H](O)[C@H]3O)[C@H]3COC(=O)[C@H]23)OCO4)cc(OC)c1O [Etoposide]; settings: max 10 µM
How it was run: as §1

Taselisib = compound: Cc1nc(-c2cn3c(n2)-c2ccc(-c4cnn(C(C)(C)C(N)=O)c4)cc2OCC3)n(C(C)C)n1 [Taselisib]; settings: max 10 µM
How it was run: as §1

Alisertib = compound: COc1cc(Nc2ncc3c(n2)-c2ccc(Cl)cc2C(c2c(F)cccc2OC)=NC3)ccc1C(=O)O [Alisertib]; settings: max 10 µM
How it was run: as §1

AZD0156 = compound: CN(C)CCCOc1ccc(-c2ccc3ncc4c(c3c2)n(C2CCOCC2)c(=O)n4C)cn1 [AZD0156]; settings: max 3 µM
How it was run: as §1

Paclitaxel = compound: CC(=O)O[C@H]1C(=O)[C@@]2(C)[C@H]([C@H](OC(=O)c3ccccc3)[C@]3(O)C[C@H](OC(=O)[C@H](O)[C@@H](NC(=O)c4ccccc4)c4ccccc4)C(C)=C1C3(C)C)[C@]1(OC(C)=O)CO[C@@H]1C[C@@H]2O [Paclitaxel]; settings: max 3 µM
How it was run: as §1

Selumetinib = compound: Cn1cnc2c(F)c(Nc3ccc(Br)cc3Cl)c(C(=O)NOCCO)cc21 [Selumetinib]; settings: max 10 µM
How it was run: as §1

SG3199 = compound: CC1=CN2[C@@H](C1)C=NC3=CC(=C(C=C3C2=O)OC)OCCCCCOC4=C(C=C5C(=C4)N=C[C@@H]6CC(=CN6C5=O)C)OC [SG3199]; settings: max 0.001 µM
How it was run: as §1

Prexasertib = compound: COc1cccc(OCCCN)c1-c1cc(Nc2cnc(C#N)cn2)n[nH]1 [Prexasertib]; settings: max 1 µM
How it was run: as §1

Savolitinib = compound: C[C@@H](c1ccc2nccn2c1)n1nnc2ncc(-c3cnn(C)c3)nc21 [Savolitinib]; settings: max 1 µM
How it was run: as §1

AZD7648 = compound: Cc1cc2ncnn2cc1Nc1ncc2c(n1)n(C1CCOCC1)c(=O)n2C [AZD7648]; settings: max 10 µM
How it was run: as §1

Dasatinib = compound: CC1=C(C(=CC=C1)Cl)NC(=O)C2=CN=C(S2)NC3=CC(=NC(=N3)C)N4CCN(CC4)CCO [Dasatinib]; settings: max 2 µM
How it was run: as §1

Gemcitabine = compound: Nc1ccn([C@@H]2O[C@H](CO)[C@@H](O)C2(F)F)c(=O)n1 [Gemcitabine]; settings: max 0.3 µM
How it was run: as §1

Venetoclax = compound: CC1(C)CCC(CN2CCN(c3ccc(C(=O)NS(=O)(=O)c4ccc(NCC5CCOCC5)c([N+](=O)[O-])c4)c(Oc4cnc5[nH]ccc5c4)c3)CC2)=C(c2ccc(Cl)cc2)C1 [Venetoclax]; settings: max 1 µM
How it was run: as §1

AZD5363 = compound: C1CN(CCC1(C(=O)N[C@@H](CCO)C2=CC=C(C=C2)Cl)N)C3=NC=NC4=C3C=CN4 [AZD5363]; settings: max 10 µM
How it was run: as §1

5-Fluorouracil = compound: O=c1[nH]cc(F)c(=O)[nH]1 [5-Fluorouracil]; settings: max 20 µM
How it was run: as §1

Gefitinib = compound: COc1cc2ncnc(Nc3ccc(F)c(Cl)c3)c2cc1OCCCN1CCOCC1 [Gefitinib]; settings: max 10 µM
How it was run: as §1

## KNS-62 (Squamous Cell Lung Carcinoma)
SN-38
  IC50, cell viability 72 h: 0.0533 µM
SRA737
  IC50, cell viability 72 h: > 10 µM
AZD2811
  IC50, cell viability 72 h: > 1 µM
Olaparib
  IC50, cell viability 72 h: > 10 µM
AZD5153
  IC50, cell viability 72 h: 0.632 µM
AZD8186
  IC50, cell viability 72 h: > 10 µM
AZD6738
  IC50, cell viability 72 h: > 10 µM
MK-2206
  IC50, cell viability 72 h: > 10 µM
AZD5991
  IC50, cell viability 72 h: > 1 µM
AZD4320
  IC50, cell viability 72 h: > 1 µM
[1]
  IC50, cell viability 72 h: 4.14 µM
Palbociclib
  IC50, cell viability 72 h: > 10 µM
AZD1390
  IC50, cell viability 72 h: > 0.3 µM
Crizotinib
  IC50, cell viability 72 h: > 10 µM
Doxorubicin
  IC50, cell viability 72 h: > 1 µM
Carboplatin
  IC50, cell viability 72 h: > 10 µM
AZD1775
  IC50, cell viability 72 h: > 3 µM
Trametinib
  IC50, cell viability 72 h: 0.276 µM
Lapatinib
  IC50, cell viability 72 h: > 10 µM
Etoposide
  IC50, cell viability 72 h: > 10 µM
Taselisib
  IC50, cell viability 72 h: > 10 µM
Alisertib
  IC50, cell viability 72 h: > 10 µM
AZD0156
  IC50, cell viability 72 h: > 3 µM
Paclitaxel
  IC50, cell viability 72 h: 0.273 µM
Selumetinib
  IC50, cell viability 72 h: > 10 µM
SG3199
  IC50, cell viability 72 h: > 0.001 µM
Prexasertib
  IC50, cell viability 72 h: 0.342 µM
Savolitinib
  IC50, cell viability 72 h: > 1 µM
AZD7648
  IC50, cell viability 72 h: > 10 µM
Dasatinib
  IC50, cell viability 72 h: > 2 µM
Gemcitabine
  IC50, cell viability 72 h: > 0.3 µM
Venetoclax
  IC50, cell viability 72 h: > 1 µM
AZD5363
  IC50, cell viability 72 h: 6.59 µM
5-Fluorouracil
  IC50, cell viability 72 h: > 20 µM
Gefitinib
  IC50, cell viability 72 h: > 10 µM

## L-363 (Plasma Cell Myeloma)
SN-38
  IC50, cell viability 72 h: > 0.3 µM
SRA737
  IC50, cell viability 72 h: 1.22 µM
AZD2811
  IC50, cell viability 72 h: > 1 µM
Olaparib
  IC50, cell viability 72 h: > 10 µM
AZD5153
  IC50, cell viability 72 h: 0.381 µM
AZD8186
  IC50, cell viability 72 h: > 10 µM
AZD6738
  IC50, cell viability 72 h: 2.77 µM
MK-2206
  IC50, cell viability 72 h: 8.5 µM
AZD5991
  IC50, cell viability 72 h: 0.134 µM
AZD4320
  IC50, cell viability 72 h: > 1 µM
[1]
  IC50, cell viability 72 h: > 5 µM
Palbociclib
  IC50, cell viability 72 h: > 10 µM
AZD1390
  IC50, cell viability 72 h: > 0.3 µM
Crizotinib
  IC50, cell viability 72 h: > 10 µM
Doxorubicin
  IC50, cell viability 72 h: > 1 µM
Carboplatin
  IC50, cell viability 72 h: > 10 µM
AZD1775
  IC50, cell viability 72 h: 0.231 µM
Trametinib
  IC50, cell viability 72 h: > 1 µM
Lapatinib
  IC50, cell viability 72 h: > 10 µM
Etoposide
  IC50, cell viability 72 h: > 10 µM
Taselisib
  IC50, cell viability 72 h: 9.12 µM
Alisertib
  IC50, cell viability 72 h: > 10 µM
AZD0156
  IC50, cell viability 72 h: > 3 µM
Paclitaxel
  IC50, cell viability 72 h: 0.00531 µM
Selumetinib
  IC50, cell viability 72 h: > 10 µM
SG3199
  IC50, cell viability 72 h: > 0.001 µM
Prexasertib
  IC50, cell viability 72 h: 0.00532 µM
Savolitinib
  IC50, cell viability 72 h: > 1 µM
AZD7648
  IC50, cell viability 72 h: > 10 µM
Dasatinib
  IC50, cell viability 72 h: > 2 µM
Gemcitabine
  IC50, cell viability 72 h: 0.258 µM
Venetoclax
  IC50, cell viability 72 h: 0.694 µM
AZD5363
  IC50, cell viability 72 h: > 10 µM
5-Fluorouracil
  IC50, cell viability 72 h: > 20 µM
Gefitinib
  IC50, cell viability 72 h: > 10 µM
